# In patent publication US20070270488A1, “Treatment and Assays” (The Queen's University of Belfast, priority 2004, published 2007):
# Read-outs that look alike come from different tables or passages of the source.
# Key:
# Assay type in all cases: cell-based, human
# [1] = system: p53^−/− oxaliplatin-resistant HCT116 cells; assay: MTT cytotoxicity assay, p53^−/− oxaliplatin-resistant HCT116 cells; conditions: for IC50: p53^−/− oxaliplatin-resistant, MTT, 72 h; for increase in IC50 (72 hr) compared to parental cells: p53^−/− oxaliplatin-resistant vs p53^−/− parental
# Protocol: (§1) Tissue culture. HCT116 p53^+/+ and p53^−/− isogenic human colon cancer cells were kindly provided by Professor Bert Vogelstein (John Hopkins University, Baltimore, Md.). Drug-resistant HCT116 sub-lines were developed in the inventors' laboratory by repeated exposure to stepwise increasing concentrations of 5-FU, CPT-11 or oxaliplatin over a period of approximately ten months. Parental and drug-resistant HCT116 cell lines were grown in McCoy's 5A medium supplemented with 10% dialysed foetal calf serum (FCS), 50 μg/ml penicillin-streptomycin, 2 mM L-glutamine and 1 mM sodium pyruvate (all from GIBCO Invitrogen Corporation, Paisley, Scotland) and maintained at 37° C. in a humidified atmosphere containing 5% CO2. 5-FU-resistant p53^+/+ and p53^−/− HCT116 cells were maintained in the presence of 2 μM and 4 μM 5-FU respectively. CPT-11-resistant p53^+/+ and p53^−/− HCT116 cells were maintained in the presence of 1 μM and 3 μM CPT-11 respectively. […] Prior to each experiment, resistant sub-lines were cultured in the absence of drug for 48 hours.
# (§2) Cytotoxicity studies. Cells were seeded at 2000 cells per well in 96-well microtiter plates. After 48 hours, cells were treated with a range of concentrations of 5-FU, CPT-11 or oxaliplatin.
# (§3) After 72 hours, 25 μl of MTT dye (5 mg/ml) was added to each well and the plates were incubated at 37° C. for 3 hours. Dark-blue formazan crystals formed by live cells were dissolved in 200 μl of DMSO and absorbance in individual wells was determined at 570 nm using an Emax precision microplate reader (Molecular Devices, Sunnyvale, Calif.).
# p53^+/+ HCT116 cells = assay: PARP cleavage immunoblotting, p53^+/+ HCT116 cells; conditions: 48 hours, Western blot
# [2] = system: p53^+/+ CPT-11-resistant HCT116 cells; assay: Flow cytometry cell cycle/apoptosis, p53^+/+ CPT-11-resistant cells; conditions: 72 hours
# Protocol: as §1
# (§4) Flow cytometry. Cells were seeded at 5×10^4 cells per well in 6-well plates. After 48 hours, cells were treated with a range of concentrations of 5-FU, CPT-11 or oxaliplatin. Seventy-two hours post-treatment, cells were harvested in 5 ml of 1× PBS/0.5 mM EDTA and pelleted by centrifugation at 1000 rpm/4° C. for 5 minutes. Cell pellets were washed once with 1× PBS/1% FCS, fixed in 70% ethanol and stained with propidium iodide. Analyses were performed on a Beckman Coulter Epics XL flow cytometer (Miami, Fla.).
# [3] = system: HCT116 p53^−/− parental cells; assay: MTT cytotoxicity assay, HCT116 p53^−/− parental cells; conditions: for IC50: MTT, 72 h
# Protocol: as §1, §2, §3
# [4] = system: p53^−/− 5-FU-resistant HCT116 cells; assay: MTT cytotoxicity assay, p53^−/− 5-FU-resistant HCT116 cells; conditions: p53^−/− 5-FU-resistant, MTT, 72 h
# [5] = system: p53^+/+ CPT-11-resistant HCT116 cells; assay: MTT cytotoxicity assay, p53^+/+ CPT-11-resistant HCT116 cells; conditions: for IC50: p53^+/+ CPT-11-resistant, MTT, 72 h; for increase in IC50 (72 hr) compared to parental cells: p53^+/+ CPT-11-resistant vs p53^+/+ parental
# [6] = system: p53^−/− CPT-11-resistant HCT116 cells; assay: MTT cytotoxicity assay, p53^−/− CPT-11-resistant HCT116 cells; conditions: for IC50: p53^−/− CPT-11-resistant, MTT, 72 h; for increase in IC50 (72 hr) compared to parental cells: p53^−/− CPT-11-resistant vs p53^−/− parental
# [7] = system: p53^+/+ 5-FU-resistant HCT116 cells; assay: MTT cytotoxicity assay, p53^+/+ 5-FU-resistant HCT116 cells; conditions: for IC50: p53^+/+ 5-FU-resistant, MTT, 72 h
# [8] = system: p53^+/+ oxaliplatin-resistant HCT116 cells; assay: MTT cytotoxicity assay, p53^+/+ oxaliplatin-resistant HCT116 cells; conditions: for IC50: p53^+/+ oxaliplatin-resistant, MTT, 72 h; for increase in IC50 (72 hr) compared to parental cells: p53^+/+ oxaliplatin-resistant vs p53^+/+ parental
# Protocol: as §1, §2, §3
# p53^−/− HCT116 cells = assay: PARP cleavage immunoblotting, p53^−/− HCT116 cells; conditions: 48 hours, Western blot
# [9] = system: HCT116 p53^+/+ parental cells; assay: MTT cytotoxicity assay, HCT116 p53^+/+ parental cells; conditions: 72 h
# Protocol: as §1, §2, §3
# [10] = system: p53^−/− HCT116 parental cells; assay: Flow cytometry cell cycle/apoptosis, p53^−/− HCT116 parental cells; conditions: 72 hours; for drug-induced apoptosis in p53^−/− compared to p53^+/+ parental cells: range of concentrations
# [11] = system: p53^+/+ HCT116 parental cells; assay: Flow cytometry cell cycle/apoptosis, p53^+/+ HCT116 parental cells; conditions: 72 hours
# [12] = system: p53^+/+ 5-FU-resistant HCT116 cells; assay: Flow cytometry cell cycle/apoptosis, p53^+/+ 5-FU-resistant cells; conditions: p53^+/+ 5-FU-resistant cell line, data not shown
# [13] = system: p53^−/− CPT-11-resistant HCT116 cells; assay: Flow cytometry cell cycle/apoptosis, p53^−/− CPT-11-resistant cells
# [14] = system: p53^−/− oxaliplatin-resistant HCT116 cells; assay: Flow cytometry cell cycle/apoptosis, p53^−/− oxaliplatin-resistant cells; conditions: same concentrations as parental (1 μM, 5 μM)
# Protocol: as §1
# Flow cytometry. Cells were seeded at 5×10^4 cells per well in 6-well plates. After 48 hours, cells were treated with a range of concentrations of 5-FU, CPT-11 or oxaliplatin. Seventy-two hours post-treatment, cells were harvested in 5 ml of 1× PBS/0.5 mM EDTA and pelleted by centrifugation at 1000 rpm/4° C. for 5 minutes. […]
# [15] = system: p53^+/+ oxaliplatin-resistant HCT116 cells; assay: Flow cytometry cell cycle/apoptosis, p53^+/+ oxaliplatin-resistant cells; conditions: 72 hours
# Protocol: as §1, §4
# [16] = Homo sapiens, HCT-116, read-out: IC50(72 h)
# [17] = parental HCT116 p53^−/− vs p53^+/+
# [18] = HCT116 p53^−/− parental, read-out: IC50(72 h)
# [19] = HCT116 p53^+/+ parental, read-out: IC50(72 h)
smiles,measurement,setting,value
"CCc1c2c(nc3ccc(OC(=O)N4CCC(N5CCCCC5)CC4)cc13)-c1cc3c(c(=O)n1C2)COC(=O)[C@]3(O)CC [CPT-11, irinotecan]",IC50,[1]; [16],3.5 µM
same,PARP cleavage,p53^+/+ HCT116 cells; 5 μM,evident
same,cell cycle distribution,[2]; 0.5 μM and 1 μM,almost completely insensitive
same,cell cycle distribution,[2]; 5 μM,significant G2/M arrest and accumulation of polyploid cells
same,degree of apoptosis,[2]; 5 μM,~14%
same,IC50,"[3]; Homo sapiens, HCT-116, HCT116 p53^−/− parental, read-out: IC50(72 h)",3.1 µM
same,IC50 (72 h) in parental p53^+/+ and p53^−/− cells compared,[3]; [17],almost identical
same,IC50,[4]; [16],2.8 µM
same,IC50,[5]; [16],30.3 µM
same,increase in IC50 (72 hr) compared to parental cells,[5],10.0 fold
same,IC50,[6]; [16],200 µM
same,increase in IC50 (72 hr) compared to parental cells,[6],65.0 fold
same,IC50,[7]; [16],7.2 µM
same,increase in IC50 (72 hr) compared to parental cells,[7]; p53^+/+ 5-FU-resistant vs p53^+/+ parental,~2 fold
same,IC50,[8]; [16],2.9 µM
same,PARP cleavage,p53^−/− HCT116 cells; 5 μM,evident
same,IC50,"[9]; Homo sapiens, HCT-116, HCT116 p53^+/+ parental, read-out: IC50(72 h)",3.2 µM
same,cell cycle distribution,[10]; 0.5 μM and 1 μM,dramatic G2/M cell cycle arrest
same,apoptotic cells,"[10]; 5 μM, ~2% in control samples",~35%
same,drug-induced apoptosis in p53^−/− compared to p53^+/+ parental cells,[10],almost identical levels of apoptosis
same,cell cycle distribution,[11]; 0.5 μM,accumulation of cells in S-phase
same,cell cycle distribution,[11]; 1 μM,majority of cells were now arrested in G2/M
same,cells in the sub-G0/G1 apoptotic phase,[11]; 5 μM,~40%
same,cross-resistance examined using flow cytometry,[12],not apparent
same,cell cycle distribution,[13]; 0.5 μM and 1 μM,no G2/M arrest was observed
same,apoptosis,"[13]; 5 μM, 72 hours",no apoptosis was observed
CCc1c2c(nc3ccc(O)cc13)-c1cc3c(c(=O)n1C2)COC(=O)[C@]3(O)CC [SN-38],IC50,[1]; read-out: SN-38 IC50(72 h),0.0033 µM
same,IC50,"[3]; p53^−/− Parental, read-out: SN-38 IC50(72 h)",0.0042 µM
same,IC50 (72 h) in parental p53^+/+ and p53^−/− cells compared,[3]; [17],similar
same,IC50,[4]; read-out: SN-38 IC50(72 h),0.0036 µM
same,increase in IC50 (72 hr) compared to parental cells,[5],~10 fold
same,IC50,[5]; read-out: SN-38 IC50(72 h),0.04 µM
same,increase in IC50 (72 hr) compared to parental cells,[6],~100 fold
same,IC50,[6]; read-out: SN-38 IC50(72 h),0.54 µM
same,IC50,[7]; read-out: SN-38 IC50(72 h),0.0065 µM
same,IC50,[8]; read-out: SN-38 IC50(72 h),0.0037 µM
same,IC50,"[9]; p53^+/+ Parental, read-out: SN-38 IC50(72 h)",0.0056 µM
N.N.O=C([O-])C1(C(=O)[O-])CCC1.[Pt+2] [carboplatin],increase in IC50 (72 hr) compared to parental cells,[1],~2 fold
same,IC50,[1]; read-out: IC50(72 h),141 µM
same,IC50,[3]; [18],78.7 µM
same,increase in IC50 (72 hr) compared to parental cells,[8],~2 fold
same,IC50,[8]; read-out: IC50(72 h),176 µM
same,IC50,[9]; [19],76 µM
N.N.[Cl][Pt][Cl] [cisplatin],IC50,[1]; read-out: IC50(72 h),6.7 µM
same,IC50,[3]; [18],5.7 µM
same,IC50,[8]; read-out: IC50(72 h),7.3 µM
same,IC50,[9]; [19],5.4 µM
O=C1[O][Pt]2([NH][C@@H]3CCCC[C@H]3[NH]2)[O]C1=O [oxaliplatin],increase in IC50 (72 hr) compared to parental cells,[1],10.5 fold
same,IC50,[1]; read-out: IC50(72 h),17.9 µM
same,PARP cleavage,p53^+/+ HCT116 cells; 1 μM,observed
same,cell cycle distribution,[14],no change in cell cycle distribution
same,IC50,[3]; [18],1.7 µM
same,increase in IC50 (72 h) dose in p53^−/− compared to p53^+/+ cells,[3]; [17],5.7 fold
same,IC50,[4]; read-out: IC50(72 h),1.9 µM
same,IC50,[5]; read-out: IC50(72 h),0.3 µM
same,IC50,[6]; read-out: IC50(72 h),1.7 µM
same,IC50,[7]; read-out: IC50(72 h),0.3 µM
same,increase in IC50 (72 hr) compared to parental cells,[8],31.0 fold
same,IC50,[8]; read-out: IC50(72 h),9.4 µM
same,PARP cleavage,p53^−/− HCT116 cells; 1 μM,not
same,IC50,[9]; [19],0.3 µM
same,cell cycle distribution,[10]; 1 μM,S-phase block and a moderate increase in the polyploid fraction
same,cell cycle distribution,[10]; 5 μM,majority of cells were arrested in G2/M phase
same,drug-induced apoptosis in p53^−/− compared to p53^+/+ parental cells,[10],significantly attenuated
same,cell cycle distribution,[11]; 0.5 μM,majority of cells had arrested in G2/M-phase
same,proportion of apoptotic cells,"[11]; 1 μM and 5 μM, ~2% in control samples",40-50%
same,cell cycle distribution,[15]; 0.5 μM and 1 μM,unaffected
same,cell cycle distribution,[15]; 5 μM,majority of cells were arrested in S-phase
same,induction of apoptosis compared to parental cells,[15],dramatically attenuated
